Data: ChEMBL document CHEMBL5291721, “A preclinical secondary pharmacology resource illuminates target-adverse drug reaction associations of marketed drugs” (Nat Commun, 2023)

Experiments:
Estrogen receptor = target: T1, Estrogen receptor (Homo sapiens, UniProt P03372)
T1 sequence (P03372 whole entry): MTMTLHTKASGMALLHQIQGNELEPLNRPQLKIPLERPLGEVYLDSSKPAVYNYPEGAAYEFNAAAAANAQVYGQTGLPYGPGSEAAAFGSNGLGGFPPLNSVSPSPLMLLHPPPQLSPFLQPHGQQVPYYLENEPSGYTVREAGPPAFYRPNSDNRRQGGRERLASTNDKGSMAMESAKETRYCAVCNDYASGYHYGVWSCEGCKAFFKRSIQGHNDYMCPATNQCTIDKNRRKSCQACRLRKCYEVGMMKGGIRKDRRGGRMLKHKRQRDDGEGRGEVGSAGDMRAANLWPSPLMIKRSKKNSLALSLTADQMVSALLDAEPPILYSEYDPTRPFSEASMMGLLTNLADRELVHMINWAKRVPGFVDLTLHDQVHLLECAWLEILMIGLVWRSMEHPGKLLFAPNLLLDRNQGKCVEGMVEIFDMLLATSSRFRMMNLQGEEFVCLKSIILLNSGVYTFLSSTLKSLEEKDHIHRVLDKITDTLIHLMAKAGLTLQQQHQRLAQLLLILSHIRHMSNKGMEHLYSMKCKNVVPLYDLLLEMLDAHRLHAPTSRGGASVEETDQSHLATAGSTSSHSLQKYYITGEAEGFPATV

[1] = target: T2, Alpha-1A adrenergic receptor (Homo sapiens, UniProt P35348)
T2 sequence (P35348 whole entry): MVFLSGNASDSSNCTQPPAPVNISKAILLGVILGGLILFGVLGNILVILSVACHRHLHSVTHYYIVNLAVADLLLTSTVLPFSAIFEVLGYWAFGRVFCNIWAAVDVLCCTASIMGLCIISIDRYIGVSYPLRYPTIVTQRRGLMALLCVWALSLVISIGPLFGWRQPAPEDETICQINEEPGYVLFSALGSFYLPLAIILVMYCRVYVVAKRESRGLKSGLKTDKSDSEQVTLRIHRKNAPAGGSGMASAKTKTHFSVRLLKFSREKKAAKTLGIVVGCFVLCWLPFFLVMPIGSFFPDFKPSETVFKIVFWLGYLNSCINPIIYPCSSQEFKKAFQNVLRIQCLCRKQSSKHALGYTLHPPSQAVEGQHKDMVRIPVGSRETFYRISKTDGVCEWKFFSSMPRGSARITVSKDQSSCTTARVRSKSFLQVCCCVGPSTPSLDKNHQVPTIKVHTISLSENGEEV

Glucocorticoid receptor = target: T3, Glucocorticoid receptor (Homo sapiens, UniProt P04150)
T3 sequence (P04150 whole entry): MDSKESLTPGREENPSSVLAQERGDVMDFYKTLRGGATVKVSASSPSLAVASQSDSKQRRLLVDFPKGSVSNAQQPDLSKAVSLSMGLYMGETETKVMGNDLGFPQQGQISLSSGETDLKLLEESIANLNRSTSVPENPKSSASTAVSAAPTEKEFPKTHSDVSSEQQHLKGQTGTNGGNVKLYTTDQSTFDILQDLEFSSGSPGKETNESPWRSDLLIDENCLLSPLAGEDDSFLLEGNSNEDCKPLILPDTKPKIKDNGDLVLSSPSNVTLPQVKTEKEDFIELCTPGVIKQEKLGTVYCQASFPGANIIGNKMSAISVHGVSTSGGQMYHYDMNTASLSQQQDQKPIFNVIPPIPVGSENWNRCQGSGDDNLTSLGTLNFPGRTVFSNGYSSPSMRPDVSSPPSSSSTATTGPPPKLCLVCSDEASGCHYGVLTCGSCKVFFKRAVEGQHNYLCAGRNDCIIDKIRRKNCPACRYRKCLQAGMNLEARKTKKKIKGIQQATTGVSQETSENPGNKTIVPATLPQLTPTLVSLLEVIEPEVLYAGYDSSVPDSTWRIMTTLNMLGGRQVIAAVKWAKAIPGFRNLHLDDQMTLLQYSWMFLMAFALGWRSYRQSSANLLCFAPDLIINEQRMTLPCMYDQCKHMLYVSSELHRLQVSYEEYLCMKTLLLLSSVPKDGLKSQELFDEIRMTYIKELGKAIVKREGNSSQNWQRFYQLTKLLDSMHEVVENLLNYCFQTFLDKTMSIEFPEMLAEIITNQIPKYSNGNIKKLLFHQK

[2] = target: T4, 5-hydroxytryptamine receptor 1A (Homo sapiens, UniProt P08908)
T4 sequence (P08908 whole entry): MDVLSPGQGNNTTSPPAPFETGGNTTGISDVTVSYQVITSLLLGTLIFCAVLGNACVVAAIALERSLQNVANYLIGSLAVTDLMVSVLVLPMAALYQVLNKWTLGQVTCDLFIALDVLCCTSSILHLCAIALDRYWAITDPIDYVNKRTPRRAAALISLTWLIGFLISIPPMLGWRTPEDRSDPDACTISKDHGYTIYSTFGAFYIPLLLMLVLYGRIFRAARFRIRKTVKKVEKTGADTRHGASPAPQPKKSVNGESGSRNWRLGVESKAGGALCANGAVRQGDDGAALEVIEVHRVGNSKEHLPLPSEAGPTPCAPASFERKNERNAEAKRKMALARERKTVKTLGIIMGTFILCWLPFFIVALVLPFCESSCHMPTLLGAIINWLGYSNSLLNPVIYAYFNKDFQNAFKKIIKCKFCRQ

[3] = target: T5, Corticotropin-releasing factor receptor 1 (Homo sapiens, UniProt P34998)
T5 sequence (P34998 whole entry): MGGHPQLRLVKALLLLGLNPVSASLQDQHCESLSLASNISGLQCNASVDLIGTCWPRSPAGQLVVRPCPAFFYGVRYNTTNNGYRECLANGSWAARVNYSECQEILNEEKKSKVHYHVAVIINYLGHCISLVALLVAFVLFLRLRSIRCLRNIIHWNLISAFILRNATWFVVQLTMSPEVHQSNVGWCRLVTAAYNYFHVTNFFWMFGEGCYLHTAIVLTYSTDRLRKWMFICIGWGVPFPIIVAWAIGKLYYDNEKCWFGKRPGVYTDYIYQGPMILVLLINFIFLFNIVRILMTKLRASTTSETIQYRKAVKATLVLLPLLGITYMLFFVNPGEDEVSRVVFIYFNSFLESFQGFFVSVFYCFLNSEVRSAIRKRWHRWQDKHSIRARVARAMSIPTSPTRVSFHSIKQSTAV
Further: assay procedure not described here.

Row | SMILES | AC50 (Estrogen receptor) [µM] | AC50 [1] [µM] | AC50 (Glucocorticoid receptor) [µM] | AC50 [2] [µM] | AC50 [3] [µM]
1 | O=C1C(CC[S+]([O-])c2ccccc2)C(=O)N(c2ccccc2)N1c1ccccc1 (stereo not given) [SULFINPYRAZONE] | > 10 | > 10 | > 10 |  | 
2 | Cc1onc(-c2ccccc2)c1-c1ccc(S(N)(=O)=O)cc1 [VALDECOXIB] |  | > 10 | > 30 | > 10 | > 30
3 | CCCN(CCC)C(=O)Cc1c(-c2ccc(Cl)cc2)nc2ccc(Cl)cn12 [ALPIDEM] | > 30 | > 30 |  | > 10 | 
4 | CN(C)CCC[C@@]1(c2ccc(F)cc2)OCc2cc(C#N)ccc21 [ESCITALOPRAM] |  |  | > 30 |  | 
5 | COc1cc2nc(N3CCN(C(=O)C4CCCO4)CC3)nc(N)c2cc1OC (stereo not given) [TERAZOSIN] | > 30 |  | > 30 | > 10 | > 30
6 | Nc1ccc(S(=O)(=O)Nc2nccs2)cc1 [SULFATHIAZOLE] | > 30 | 5.1 | > 30 | > 10 | > 30
7 | CC(C)N(CCC(C(N)=O)(c1ccccc1)c1ccccn1)C(C)C (stereo not given) [DISOPYRAMIDE] |  | > 10 |  | > 10 | > 30
8 | CCCC(CCC)C(=O)O [VALPROIC ACID] | > 30 |  | > 30 | > 10 | > 30
9 | O=C1CCc2cc(OCCCCc3nnnn3C3CCCCC3)ccc2N1 [CILOSTAZOL] | > 30 | > 10 | > 30 | > 10 | 
10 | C[C@@H](NCCCc1cccc(C(F)(F)F)c1)c1cccc2ccccc12 |  |  | > 30 |  | 
11 | C=C[C@H]1C[N@@]2CC[C@H]1C[C@@H]2[C@@H](O)c1ccnc2ccc(OC)cc12 [QUINIDINE] | > 30 |  |  | > 10 | 
12 | OC[C@H]1O[C@@](CO)(O[C@H]2O[C@H](CO)[C@@H](O)[C@H](O)[C@H]2O)[C@@H](O)[C@@H]1O [SUCROSE] | > 30 |  |  |  | 
13 | C[C@H]1c2cccc(O)c2C(=O)C2=C(O)[C@]3(O)C(=O)C(C(N)=O)=C(O)[C@@H](N(C)C)[C@@H]3[C@@H](O)[C@@H]21 [DOXYCYCLINE] |  | 3.4 |  | > 10 | > 30
14 | CO[C@H]1/C=C/O[C@@]2(C)Oc3c(C)c(O)c4c(O)c(c(/C=N/N5CCN(C)CC5)c(O)c4c3C2=O)NC(=O)/C(C)=C\C=C\[C@H](C)[C@H](O)[C@@H](C)[C@@H](O)[C@@H](C)[C@H](OC(C)=O)[C@@H]1C [RIFAMPIN] |  | 2.33 |  | > 10 | > 30
15 | C=CC[C@@H]1/C=C(\C)C[C@H](C)C[C@H](OC)[C@H]2O[C@@](O)(C(=O)C(=O)N3CCCC[C@H]3C(=O)O[C@H](/C(C)=C/[C@@H]3CC[C@@H](O)[C@H](OC)C3)[C@H](C)[C@@H](O)CC1=O)[C@H](C)C[C@@H]2OC [TACROLIMUS ANHYDROUS] | > 30 | > 10 | > 30 | > 10 | > 30
16 | CC(=O)O[C@]1(C(C)=O)CC[C@H]2[C@@H]3C=C(C)C4=CC(=O)CC[C@@H]4[C@H]3CC[C@@]21C [NOMEGESTROL ACETATE] | > 30 |  | 0.067 |  | 

Row | SMILES | AC50 (Estrogen receptor) [µM] | AC50 [1] [µM] | AC50 (Glucocorticoid receptor) [µM] | AC50 [2] [µM] | AC50 [3] [µM]
17 | C[C@]12C=CC(=O)N[C@@H]1CC[C@@H]1[C@@H]2CC[C@]2(C)[C@@H](C(=O)Nc3cc(C(F)(F)F)ccc3C(F)(F)F)CC[C@@H]12 [DUTASTERIDE] | > 10 | > 10 | > 10 |  | 
18 | COc1ccccc1Oc1c(NS(=O)(=O)c2ccc(C(C)(C)C)cc2)nc(-c2ncccn2)nc1OCCO [BOSENTAN] | > 30 | > 10 | > 30 | > 10 | > 30
19 | COc1ccc(CC2c3cc(OC)c(OC)cc3CC[N+]2(C)CCC(=O)OCCCCCOC(=O)CC[N+]2(C)CCc3cc(OC)c(OC)cc3C2Cc2ccc(OC)c(OC)c2)cc1OC (stereo not given) | > 30 | > 30 | > 30 |  | 
20 | N[C@@H](CC(=O)N1CCn2c(nnc2C(F)(F)F)C1)Cc1cc(F)c(F)cc1F [SITAGLIPTIN] |  |  |  | > 10 | 
21 | CC(C(=O)O)c1ccc2c(c1)[nH]c1ccc(Cl)cc12 (stereo not given) [CARPROFEN] | > 30 | > 10 | > 30 |  | 
22 | COc1ccccc1OCCNCC(O)COc1cccc2[nH]c3ccccc3c12 (stereo not given) [CARVEDILOL] | > 30 | 0.0194 | > 30 | 0.02 | > 30
23 | CN1C(C(=O)Nc2ccccn2)=C(O)c2ccccc2S1(=O)=O [PIROXICAM] | > 10 | > 30 | > 10 |  | 
24 | C[C@@H](Oc1cc(-c2cnn(C3CCNCC3)c2)cnc1N)c1c(Cl)ccc(F)c1Cl [CRIZOTINIB] |  |  |  | > 10 | > 30
25 | CN(C)CCc1c[nH]c2ccc(Cn3cncn3)cc12 [RIZATRIPTAN] |  | > 10 |  |  | > 30
26 | O=C1CN(/N=C/c2ccc(-c3ccc([N+](=O)[O-])cc3)o2)C(O)=N1 [DANTROLENE] |  | > 10 | > 10 |  | 
27 | CC(N)C12CC3CC(CC(C3)C1)C2 (stereo not given) [RIMANTADINE] | > 10 | > 10 | > 10 |  | 
28 | CC(C)c1nc(N(C)S(C)(=O)=O)nc(-c2ccc(F)cc2)c1/C=C/[C@@H](O)C[C@@H](O)CC(=O)O [ROSUVASTATIN] | > 30 |  | > 30 |  | 
29 | CN(C)CC[C@@H](c1ccc(Cl)cc1)c1ccccn1 [DEXCHLORPHENIRAMINE] |  |  | > 30 |  | 
30 | CCN(CC)CCNC(=O)c1c(C)[nH]c(/C=C2\C(=O)Nc3ccc(F)cc32)c1C [SUNITINIB] |  |  | > 30 | 7.13 | 
31 | CC(C)Cc1ccc(C(C)C(=O)O)cc1 (stereo not given) [IBUPROFEN] | 21.3 | > 10 | > 30 | > 10 | > 30
